Assay [1] concerns Bacillus cereus. The experiment in a line: Antibacterial activity against Bacillus cereus assessed as inhibition of bacterial growth after 4 hrs by resazurin microtiter assay. The assay is classed as functional. In general terms: Resazurin is reduced to fluorescent resorufin, in cell work by metabolically active cells.
In assay [2] the test system is Bacillus cereus. As to the kind of experiment: Bacteriostatic activity against Bacillus cereus assessed as colony count at MIC after 4 hrs by resazurin microtiter assay (reference value: 2.67 +/-1.53x10^8 CFU/ml). The format is functional.
The subject of assay [3] is Bacillus subtilis. As to the kind of experiment: Antibacterial activity against Bacillus subtilis ATCC 11775 assessed as inhibition of bacterial growth after 4 hrs by resazurin microtiter assay. As to conditions: ATCC 11775, 4 h. The assay is classed as functional.
The test system of assay [4] is Bacillus subtilis. As to the kind of experiment: Bacteriostatic activity against Bacillus subtilis ATCC 11775 assessed as colony count at MIC after 4 hrs by resazurin microtiter assay (reference value: 9.40 +/-2.88x10^7 CFU/ml). The assay is classed as functional.
The test system of assay [5] is Bacillus subtilis. The experiment in a line: Inhibition of GlcNAcase in Bacillus subtilis ATCC 11775 assessed as inhibition of nitrophenol release using beta-p-nitrophenyl GlcNAc as substrate after 16 hrs by Spectromax 190 microtitre plate reader.
For assay [6], the system named is Bacillus subtilis. As to the kind of experiment: Inhibition of GlcNAcase in Bacillus subtilis ATCC 11775 assessed as inhibition of nitrophenol release using beta-p-nitrophenyl GlcNAc as substrate at 250 uM after 16 hrs by Spectromax 190 microtitre plate reader.
In assay [7] the test system is Bacillus subtilis. As to the kind of experiment: Induction of disrupted cell division in Bacillus subtilis ATCC 11775 assessed as phenotype with highly elongated cells and the appearance of chains of cells at 0.8xMIC after 2.5 hrs by phase contrast microscopy. The assay is classed as functional, organism-based.

Molecules are shown by their SMILES. In brackets after ≈: the same amount, converted by molar mass. Activity calls are given as the source filed them. The calls are words filed in the database; no cut-off is given here.

As usually defined, the MIC is the lowest concentration that inhibits growth of the organism.

In the case of `COc1ccc(C(C(=O)NCc2ccccc2)N(Cc2ccccc2)C(=O)c2cn([C@@H]3O[C@H](CO)[C@@H](O)[C@H](O)[C@H]3NC(C)=O)nn2)cc1` (some centres not stated), the MIC in assay [1] came out at 60 µM (≈ 39.5 µg/mL). Further, the Activity in assay [2] is listed as 7 ×10⁸ CFU/ml.

In the case of `CCCCNC(=O)C(C1CCCCC1)N(Cc1cn([C@@H]2O[C@H](CO)[C@@H](O)[C@H](O)[C@H]2NC(C)=O)nn1)C(=O)c1ccccc1I` (some centres not stated), the MIC in assay [3] amounted to 63 µM (≈ 45.8 µg/mL). Besides, in assay [4], the Activity was 8.5 ×10⁷ CFU/ml. The inhibition result in assay [5] was “Dose-dependent effect”. In addition, the inhibition entry in assay [6] is “Active”. For the same compound, in assay [7], the outcome was Active.

The record behind these values is ChEMBL document CHEMBL3596102, “Anti-bacterial glycosyl triazoles - Identification of an N-acetylglucosamine derivative with bacteriostatic activity against Bacillus” (2014).
